Measurements: PubChem BioAssay AID504341 (Southern Research Specialized Biocontainment Screening …, 2011)
Activity calls are given as the source filed them.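 How the source made its calls: active means compounds blocking at least half of HIV-1 envelope-driven cell fusion at some tested dose; inactive means the rest.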

Test system: MAGI-CCR5/HeLa-R5-16 cell fusion, beta-gal luminescence
Test: inhibitors of R5 HIV-1 Env-mediated cell fusion, dose response, MAGI-CCR5/HeLa-R5-16 cells, beta-gal luminescence, 2% serum (AID 504341)

IC50	Compound
33.3 µM	CCc1ccc(-n2cccc2/C=C2/C(=N)N3C(=NC2=O)SN=C3S(C)(=O)=O)cc1
28.4 µM	O=C(O)c1ccc(C2Nc3ccc(S(=O)(=O)Nc4cc(Cl)ccc4Cl)cc3C3C=CCC32)cc1 (stereo not drawn)
2.96 µM	Cc1c2c(=O)n(-c3nc4ccccc4s3)nc-2cc(O)n1Cc1ccncc1
49.9 µM	CS(=O)(=O)C1=NSC2=NC(=O)/C(=C\c3cccn3-c3cccc(F)c3)C(=N)N21
> 100 µM (inactive)	O=C(O)CCC(C(=O)O)N1C(=O)/C(=C\c2ccco2)SC1=S (stereo not drawn)
39.2 µM	CCOC(=O)C1=C(C)N=c2sc(=Cc3ccc(OCC(=O)O)cc3)c(=O)n2C1c1ccc(F)cc1 (stereo not drawn)
28.5 µM	CS(=O)(=O)C1=NSC2=NC(=O)/C(=C\c3cccn3-c3ccc(Br)cc3)C(=N)N21
75.5 µM	CCOC(=O)C1=C(C)N=c2sc(=Cc3ccc(OCC(=O)O)cc3)c(=O)n2C1c1cc(OC)c(OC)c(OC)c1 (stereo not drawn)
8.68 µM	O=C(O)CCCN1C(=O)/C(=C/c2ccc(-c3ccc(Cl)c(Cl)c3)o2)SC1=S
> 100 µM (inactive)	O=C(O)CCCN1C(=O)/C(=C\c2ccc(-c3ccc(F)cc3)o2)SC1=S
5.19 µM	Cc1c2c(=O)n(-c3nc4ccccc4s3)nc-2cc(O)n1CCc1ccc(O)cc1
46.6 µM	CS(=O)(=O)C1=NSC2=NC(=O)/C(=C\c3cccn3-c3cccc(C(F)(F)F)c3)C(=N)N21
33.1 µM	Cc1ccc(-n2cccc2/C=C2/C(=N)N3C(=NC2=O)SN=C3S(C)(=O)=O)cc1C
> 100 µM (inactive)	COc1cccc(C2C(C(=O)Nc3ccccc3)=C(C)N=c3sc(=Cc4ccc(OCC(=O)O)cc4)c(=O)n32)c1 (stereo not drawn)
63.1 µM	CCOC(=O)C1=C(C)N=c2sc(=Cc3ccc(OCC(=O)O)cc3)c(=O)n2C1c1ccccc1 (stereo not drawn)
38.7 µM	COc1ccccc1NS(=O)(=O)c1ccc2c(c1)C1C=CCC1C(c1ccc(C(=O)O)cc1)N2 (stereo not drawn)
38 µM	Cc1ccc(-n2cccc2/C=C2/C(=N)N3C(=NC2=O)SN=C3S(C)(=O)=O)cc1
25.8 µM	CCOC(=O)C1=C(c2ccccc2)N=c2s/c(=C\c3ccc(OCC(=O)O)cc3)c(=O)n2C1c1cccc(OC)c1 (stereo not drawn)
3.49 µM	O=C(O)CCCN1C(=O)/C(=C\c2ccc(-c3ccc(Br)cc3)o2)SC1=S
23.5 µM	O=C(O)c1ccc([C@@H]2Nc3ccc(S(=O)(=O)Nc4cccc5ccccc45)cc3[C@@H]3C=CC[C@@H]32)cc1
36.4 µM	CS(=O)(=O)C1=NSC2=NC(=O)/C(=C\c3cccn3-c3cccc(Cl)c3)C(=N)N21
36.6 µM	COc1ccc(-c2ccc(/C=C3\SC(=S)N(CCCC(=O)O)C3=O)o2)cc1
28.5 µM	O=C(O)CCCN1C(=O)/C(=C\c2ccc(-c3cccc(Cl)c3)o2)SC1=S
34.9 µM	CCOC(=O)C1=C(C)N=c2s/c(=C\c3ccc(OCC(=O)O)cc3)c(=O)n2C1c1ccc(Cl)cc1 (stereo not drawn)
39 µM	Cc1c2c(=O)n(-c3nc4ccccc4s3)nc-2cc(O)n1CCC(C)C
56.8 µM	CC1=C(C(=O)OC(C)C)C(c2ccc(Cl)cc2)n2c(s/c(=C\c3ccc(OCC(=O)O)cc3)c2=O)=N1 (stereo not drawn)
> 100 µM (inactive)	COc1cccc(-n2cccc2/C=C2/C(=N)N3C(=NC2=O)SN=C3S(C)(=O)=O)c1

IC50	Compound
39.5 µM	CCOc1ccc(-n2cccc2/C=C2/C(=N)N3C(=NC2=O)SN=C3S(C)(=O)=O)cc1
> 100 µM (inactive)	O=C(O)c1ccc(C[n+]2c(-c3ccc([N+](=O)[O-])cc3)csc2Nc2ccccc2)cc1
> 100 µM (inactive)	O=C(O)c1ccc(C[n+]2c(-c3ccccc3)csc2Nc2ccccc2)cc1
34.5 µM	Cc1c2c(=O)n(-c3nc4ccccc4s3)nc-2cc(O)n1Cc1cccs1
17 µM	COc1ccccc1Cn1c(O)cc2nn(-c3nc4ccccc4s3)c(=O)c-2c1C
> 100 µM (inactive)	Nc1sc2ccccc2[n+]1Cc1ccc(C(=O)O)cc1
29 µM	CCOC(=O)C1=C(C)N=c2sc(=Cc3ccc(OCC(=O)O)cc3)c(=O)n2C1c1ccc(OC)cc1OC (stereo not drawn)
8.29 µM	O=C(O)CCCN1C(=O)/C(=C\c2ccc(-c3ccc(Cl)cc3)o2)SC1=S
48.8 µM	CCOC(=O)C1=C(C)N=c2sc(=Cc3ccc(OCC(=O)O)cc3)c(=O)n2C1c1ccccc1OC (stereo not drawn)
32.3 µM	CS(=O)(=O)C1=NSC2=NC(=O)/C(=C\c3cccn3-c3cc(Cl)cc(Cl)c3)C(=N)N21
29.1 µM	Cc1ccc(-c2ccc(/C=C3\SC(=S)N(CCCC(=O)O)C3=O)o2)cc1
3.54 µM	Cc1c2c(=O)n(-c3nc4ccccc4s3)nc-2cc(O)n1Cc1cccnc1
24.5 µM	O=C(O)CCCN1C(=O)/C(=C/c2ccc(-c3cccc(C(F)(F)F)c3)o2)SC1=S
27.9 µM	CS(=O)(=O)C1=NSC2=NC(=O)/C(=C\c3cccn3-c3ccc(F)cc3)C(=N)N21
> 100 µM (inactive)	Cc1c2c(=O)n(-c3nc4ccccc4s3)nc-2cc(O)n1CCc1cccs1
15.3 µM	COc1ccc(Cn2c(O)cc3nn(-c4nc5ccccc5s4)c(=O)c-3c2C)cc1
15.5 µM	Cc1c2c(=O)n(-c3nc4ccccc4s3)nc-2cc(O)n1C1CC1
34.8 µM	CS(=O)(=O)C1=NSC2=NC(=O)/C(=C\c3cccn3-c3ccc(Cl)cc3)C(=N)N21
20 µM	Cc1c2c(=O)n(-c3nc4ccccc4s3)nc-2cc(O)n1Cc1ccc(F)cc1
31.3 µM	CCOC(=O)C1=C(C)N=c2s/c(=C\c3ccc(OCC(=O)O)cc3)c(=O)n2C1c1ccc(OC)c(OCC)c1 (stereo not drawn)
> 100 µM (inactive)	O=C(O)CCCN1C(=O)/C(=C/c2cc3ccccc3o2)SC1=S
62.4 µM	CCc1ccc(-c2ccc(/C=C3\SC(=S)N(CCCC(=O)O)C3=O)o2)cc1
45.6 µM	Cc1c2c(=O)n(-c3nc4ccccc4s3)nc-2cc(O)n1Cc1ccccc1Cl
> 100 µM (inactive)	COc1ccc(CCn2c(O)cc3nn(-c4nc5ccccc5s4)c(=O)c-3c2C)cc1
35.2 µM	CS(=O)(=O)C1=NSC2=NC(=O)/C(=C\c3cccn3-c3ccc(Cl)c(Cl)c3)C(=N)N21
46.4 µM	COc1ccc(-n2cccc2/C=C2/C(=N)N3C(=NC2=O)SN=C3S(C)(=O)=O)cc1Cl
